# Columns and labels:
# [1] = molecular target: T1, 5-hydroxytryptamine receptor 6 (Homo sapiens, UniProt P50406); assay: Binding affinity against cloned human 5-hydroxytryptamine 6 receptor expressed in HeLa cells using [3H]LSD; format: cell-based
# [2] = molecular target: T1, 5-hydroxytryptamine receptor 6; assay: Inhibitory concentration against 5-HT stimulated cAMP production in HeLa cells stably transfected with human 5-HT6 receptor; format: functional, cell-based
# [3] = molecular target: T1, 5-hydroxytryptamine receptor 6; assay: Inhibition of [3H]LSD binding to cloned human 5-hydroxytryptamine 6 receptor expressed in HeLa cells at 1 uM; format: cell-based
# [4] = molecular target: T2, 5-hydroxytryptamine receptor 1A (Homo sapiens, UniProt P08908); assay: Binding affinity against human cloned 5-hydroxytryptamine 1A receptor stably expressed in CHO cells using DPAT
# T2 sequence (P08908 whole entry): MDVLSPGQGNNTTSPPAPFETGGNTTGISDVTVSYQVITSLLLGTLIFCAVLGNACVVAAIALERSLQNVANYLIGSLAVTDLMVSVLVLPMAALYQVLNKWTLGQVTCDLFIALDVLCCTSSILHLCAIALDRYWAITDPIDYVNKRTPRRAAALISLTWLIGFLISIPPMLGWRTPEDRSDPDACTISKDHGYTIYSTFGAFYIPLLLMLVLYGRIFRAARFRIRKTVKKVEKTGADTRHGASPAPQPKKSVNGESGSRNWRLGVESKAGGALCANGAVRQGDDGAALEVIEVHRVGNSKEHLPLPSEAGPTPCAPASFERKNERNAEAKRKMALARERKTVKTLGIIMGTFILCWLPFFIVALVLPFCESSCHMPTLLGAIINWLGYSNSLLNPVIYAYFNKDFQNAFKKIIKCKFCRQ
# [5] = molecular target: 5-hydroxytryptamine receptor 1D (Homo sapiens) (UniProt P28221); assay: Inhibition of [3H]5-HT binding to human cloned 5-hydroxytryptamine 1D receptor stably expressed in CHO cells at 1 uM; format: cell-based
# [6] = molecular target: 5-hydroxytryptamine receptor 1B (Homo sapiens) (UniProt P28222); assay: Inhibition of [3H]-5-HT binding to human cloned 5-hydroxytryptamine 1B receptor stably expressed in CHO cells at 1 uM; format: cell-based
# [7] = molecular target: 5-hydroxytryptamine receptor 7 (Homo sapiens, UniProt P34969); assay: Binding affinity against human cloned 5-hydroxytryptamine 7 receptor stably expressed in CHO cells using [3H]LSD; format: cell-based
# [8] = molecular target: T3, 5-hydroxytryptamine receptor 2A (Homo sapiens, UniProt P28223); assay: Inhibition of [125I]DOI binding to human cloned 5-hydroxytryptamine 2A receptor stably expressed in CHO cells at 1 uM; format: cell-based
# [9] = molecular target: T4, 5-hydroxytryptamine receptor 2C (Homo sapiens) (UniProt P28335); assay: Inhibition of [3H]5-HT binding to human cloned 5-hydroxytryptamine 2C receptor stably expressed in CHO cells at 1 uM; format: cell-based
# T4 sequence (whole entry): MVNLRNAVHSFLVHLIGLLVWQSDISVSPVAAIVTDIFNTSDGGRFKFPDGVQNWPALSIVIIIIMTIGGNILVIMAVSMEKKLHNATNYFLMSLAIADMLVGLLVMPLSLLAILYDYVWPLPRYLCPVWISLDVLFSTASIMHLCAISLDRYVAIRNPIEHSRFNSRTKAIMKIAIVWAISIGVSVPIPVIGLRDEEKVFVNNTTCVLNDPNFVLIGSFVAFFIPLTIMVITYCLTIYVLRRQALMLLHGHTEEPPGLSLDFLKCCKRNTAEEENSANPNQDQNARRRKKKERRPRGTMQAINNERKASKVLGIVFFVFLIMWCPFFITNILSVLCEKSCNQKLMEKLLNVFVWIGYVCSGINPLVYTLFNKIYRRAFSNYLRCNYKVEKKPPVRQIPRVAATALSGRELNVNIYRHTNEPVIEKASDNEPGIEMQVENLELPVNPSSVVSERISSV
# [10] = molecular target: T5, 5-hydroxytryptamine receptor 1F (Homo sapiens) (UniProt P30939); assay: Inhibition of [3H]-5-HT binding to human cloned 5-hydroxytryptamine 1F receptor stably expressed in CHO cells at 1 uM; format: cell-based
# T5 sequence (whole entry): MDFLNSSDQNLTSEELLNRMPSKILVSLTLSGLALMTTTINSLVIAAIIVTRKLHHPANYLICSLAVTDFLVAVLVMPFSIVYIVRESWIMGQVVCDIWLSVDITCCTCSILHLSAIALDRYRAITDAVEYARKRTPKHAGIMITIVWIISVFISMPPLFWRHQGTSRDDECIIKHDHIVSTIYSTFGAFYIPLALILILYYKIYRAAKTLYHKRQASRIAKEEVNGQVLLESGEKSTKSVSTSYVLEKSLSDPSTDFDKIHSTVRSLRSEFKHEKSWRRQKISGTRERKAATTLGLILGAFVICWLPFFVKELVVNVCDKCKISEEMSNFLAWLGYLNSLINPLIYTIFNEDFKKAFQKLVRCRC
# D(3) dopamine receptor [11] = molecular target: T6, D(3) dopamine receptor (Homo sapiens, UniProt P35462); assay: Inhibition of [3H]spiperone binding to human cloned Dopamine receptor D3 stably expressed in CHO-K1 cells at 1 uM; format: cell-based
# D(2) dopamine receptor [12] = molecular target: T7, D(2) dopamine receptor (Homo sapiens, UniProt P14416); assay: Inhibition of [3H]spiperone binding to human cloned Dopamine receptor D2 stably expressed in CHO-K1 cells at 1 uM; format: cell-based
# [13] = molecular target: T8, D(4) dopamine receptor (Homo sapiens) (UniProt P21917); assay: Inhibition of [3H]spiperone binding to human cloned Dopamine receptor D4 stably expressed in CHO-K1 cells at 1 uM; format: cell-based
# T8 sequence (whole entry): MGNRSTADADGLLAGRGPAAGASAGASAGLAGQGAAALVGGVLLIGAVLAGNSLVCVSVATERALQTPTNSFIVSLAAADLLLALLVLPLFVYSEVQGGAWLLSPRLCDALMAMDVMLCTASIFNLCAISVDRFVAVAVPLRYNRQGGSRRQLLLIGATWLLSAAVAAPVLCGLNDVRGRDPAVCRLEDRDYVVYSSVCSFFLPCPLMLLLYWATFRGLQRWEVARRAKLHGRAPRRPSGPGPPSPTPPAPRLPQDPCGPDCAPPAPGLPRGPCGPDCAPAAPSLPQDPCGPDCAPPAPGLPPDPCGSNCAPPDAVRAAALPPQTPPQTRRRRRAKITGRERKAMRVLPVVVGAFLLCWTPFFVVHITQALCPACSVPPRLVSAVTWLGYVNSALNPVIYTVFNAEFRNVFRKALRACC
# [14] = molecular target: T3, 5-hydroxytryptamine receptor 2A; assay: Binding affinity against human cloned 5-hydroxytryptamine 2A receptor stably expressed in CHO cells using [125I]DOI; format: cell-based
# D(4) dopamine receptor = molecular target: T9, D(4) dopamine receptor (Homo sapiens, UniProt P21917); assay: Binding affinity against human cloned Dopamine receptor D4 stably expressed in CHO-K1 cells using [3H]spiperone; format: cell-based
# T9 sequence (P21917 whole entry): T8 sequence (whole entry)
# [15] = molecular target: T10, 5-hydroxytryptamine receptor 2C (Homo sapiens, UniProt P28335); assay: Binding affinity against human cloned 5-hydroxytryptamine 2C receptor stably expressed in CHO cells using [3H]-5-HT; format: cell-based
# T10 sequence (P28335 whole entry): T4 sequence (whole entry)
# D(2) dopamine receptor [16] = molecular target: T7, D(2) dopamine receptor; assay: Binding affinity against human cloned Dopamine receptor D2 stably expressed in CHO-K1 cells using [3H]spiperone; format: cell-based
# D(3) dopamine receptor [17] = molecular target: T6, D(3) dopamine receptor; assay: Binding affinity against human cloned Dopamine receptor D3 stably expressed in CHO-K1 cells using [3H]spiperone; format: cell-based
# T7 sequence (P14416 whole entry): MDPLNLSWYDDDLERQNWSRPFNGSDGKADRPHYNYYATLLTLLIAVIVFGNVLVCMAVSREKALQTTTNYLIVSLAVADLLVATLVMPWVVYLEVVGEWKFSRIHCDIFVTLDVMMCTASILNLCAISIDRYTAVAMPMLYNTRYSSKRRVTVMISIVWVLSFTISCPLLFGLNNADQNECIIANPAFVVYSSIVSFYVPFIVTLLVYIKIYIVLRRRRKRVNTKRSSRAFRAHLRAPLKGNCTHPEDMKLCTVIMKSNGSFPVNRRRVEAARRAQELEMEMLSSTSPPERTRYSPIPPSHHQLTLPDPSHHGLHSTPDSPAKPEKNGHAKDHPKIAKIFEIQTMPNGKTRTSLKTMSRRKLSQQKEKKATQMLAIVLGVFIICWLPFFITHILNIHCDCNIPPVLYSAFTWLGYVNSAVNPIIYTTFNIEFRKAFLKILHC
# T3 sequence (P28223 whole entry): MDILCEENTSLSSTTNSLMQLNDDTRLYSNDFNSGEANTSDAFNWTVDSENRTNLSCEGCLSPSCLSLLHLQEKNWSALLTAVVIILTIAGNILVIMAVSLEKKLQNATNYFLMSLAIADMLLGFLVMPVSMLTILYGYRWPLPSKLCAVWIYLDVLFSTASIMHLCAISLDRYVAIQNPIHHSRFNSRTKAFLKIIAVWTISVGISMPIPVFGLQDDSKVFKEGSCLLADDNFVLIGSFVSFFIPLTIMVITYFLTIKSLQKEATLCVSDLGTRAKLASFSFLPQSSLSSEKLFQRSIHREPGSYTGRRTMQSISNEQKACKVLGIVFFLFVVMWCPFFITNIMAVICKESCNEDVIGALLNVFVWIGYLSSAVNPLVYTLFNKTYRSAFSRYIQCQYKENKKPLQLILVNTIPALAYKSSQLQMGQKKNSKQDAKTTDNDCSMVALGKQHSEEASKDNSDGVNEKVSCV
# T6 sequence (P35462 whole entry): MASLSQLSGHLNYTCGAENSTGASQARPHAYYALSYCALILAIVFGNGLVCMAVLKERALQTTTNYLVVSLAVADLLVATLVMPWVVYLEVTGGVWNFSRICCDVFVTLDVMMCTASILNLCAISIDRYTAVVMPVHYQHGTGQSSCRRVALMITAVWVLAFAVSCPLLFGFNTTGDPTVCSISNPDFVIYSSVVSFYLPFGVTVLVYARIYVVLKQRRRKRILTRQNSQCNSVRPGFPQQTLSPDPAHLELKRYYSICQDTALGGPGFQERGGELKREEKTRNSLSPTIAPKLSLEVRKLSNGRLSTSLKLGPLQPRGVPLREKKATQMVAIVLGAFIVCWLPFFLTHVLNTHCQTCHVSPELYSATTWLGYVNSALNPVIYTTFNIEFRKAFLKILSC
# Sequence of 5-hydroxytryptamine receptor 7 (P34969 whole entry): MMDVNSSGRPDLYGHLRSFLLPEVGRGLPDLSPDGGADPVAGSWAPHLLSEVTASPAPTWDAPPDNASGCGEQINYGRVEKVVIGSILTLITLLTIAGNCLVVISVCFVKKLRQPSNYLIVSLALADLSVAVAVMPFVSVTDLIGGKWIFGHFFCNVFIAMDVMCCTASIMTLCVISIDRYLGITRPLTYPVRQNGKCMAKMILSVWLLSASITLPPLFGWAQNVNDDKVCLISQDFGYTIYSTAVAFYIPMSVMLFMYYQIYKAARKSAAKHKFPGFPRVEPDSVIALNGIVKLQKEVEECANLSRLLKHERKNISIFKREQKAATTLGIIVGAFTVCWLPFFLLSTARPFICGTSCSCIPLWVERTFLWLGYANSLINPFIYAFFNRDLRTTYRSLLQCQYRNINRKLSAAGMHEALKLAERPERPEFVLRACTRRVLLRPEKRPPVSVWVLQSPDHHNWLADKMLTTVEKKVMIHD
# Sequence of 5-hydroxytryptamine receptor 1D (Homo sapiens) (P28221 whole entry): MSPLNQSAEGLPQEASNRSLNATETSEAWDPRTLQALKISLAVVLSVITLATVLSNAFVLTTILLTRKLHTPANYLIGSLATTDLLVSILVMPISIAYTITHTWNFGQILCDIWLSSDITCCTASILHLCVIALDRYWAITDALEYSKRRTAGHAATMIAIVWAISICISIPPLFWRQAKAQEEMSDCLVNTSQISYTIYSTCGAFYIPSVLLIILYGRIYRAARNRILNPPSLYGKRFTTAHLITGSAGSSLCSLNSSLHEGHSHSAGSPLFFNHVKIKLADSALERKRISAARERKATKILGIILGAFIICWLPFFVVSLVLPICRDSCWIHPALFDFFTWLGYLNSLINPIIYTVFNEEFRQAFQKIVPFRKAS
# Sequence of 5-hydroxytryptamine receptor 1B (Homo sapiens) (P28222 whole entry): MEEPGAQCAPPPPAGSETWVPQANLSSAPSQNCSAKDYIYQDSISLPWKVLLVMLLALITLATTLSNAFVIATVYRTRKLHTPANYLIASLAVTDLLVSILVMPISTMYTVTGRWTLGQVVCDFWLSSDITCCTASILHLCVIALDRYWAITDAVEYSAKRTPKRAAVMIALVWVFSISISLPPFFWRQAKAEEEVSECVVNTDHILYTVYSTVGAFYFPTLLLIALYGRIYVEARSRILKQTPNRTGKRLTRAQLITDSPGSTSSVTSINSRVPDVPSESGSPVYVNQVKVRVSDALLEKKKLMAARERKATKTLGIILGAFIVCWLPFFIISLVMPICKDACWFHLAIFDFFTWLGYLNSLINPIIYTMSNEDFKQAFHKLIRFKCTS
# T1 sequence (P50406 whole entry): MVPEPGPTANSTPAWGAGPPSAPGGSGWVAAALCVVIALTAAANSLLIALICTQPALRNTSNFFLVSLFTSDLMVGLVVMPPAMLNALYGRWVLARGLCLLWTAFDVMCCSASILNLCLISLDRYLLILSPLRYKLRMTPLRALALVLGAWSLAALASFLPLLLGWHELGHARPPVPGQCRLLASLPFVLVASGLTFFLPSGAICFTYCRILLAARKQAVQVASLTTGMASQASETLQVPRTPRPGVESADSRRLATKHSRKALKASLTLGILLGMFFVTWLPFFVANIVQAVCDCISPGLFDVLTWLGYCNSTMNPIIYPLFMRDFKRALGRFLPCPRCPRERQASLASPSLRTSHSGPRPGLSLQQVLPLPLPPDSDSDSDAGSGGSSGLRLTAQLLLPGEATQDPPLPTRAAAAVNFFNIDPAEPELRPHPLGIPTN
Structure (SMILES),Ki [1],IC50 [2],also measured
CN1CC=C(c2c[nH]c3ccccc23)CC1,98 nM,–,–
CN1CC=C(c2cn(S(=O)(=O)c3ccccc3Cl)c3ccccc23)CC1,10 nM,0.7 nM,–
CC(C)(C)OC(=O)N1CC=C(c2cn(S(=O)(=O)c3ccccc3)c3ccccc23)CC1,54 nM,–,–
CC(=O)N1CC=C(c2cn(S(=O)(=O)c3ccccc3)c3ccccc23)CC1,–,–,inhibition [3]: 64%
O=S(=O)(c1ccccc1)n1cc(C2=CCNCC2)c2cc(F)ccc21,2.4 nM,–,–
CN1CC=C(c2cn(C(=O)Nc3ccccc3)c3ccccc23)CC1,118 nM,–,–
Nc1ccc(S(=O)(=O)n2cc(C3=CCNCC3)c3cc(F)ccc32)cc1,1 nM,9.7 nM,–
O=S(=O)(c1ccc(Cl)s1)n1cc(C2=CCNCC2)c2ccccc21,3 nM,14.1 nM,–
Nc1ccc(S(=O)(=O)n2cc(C3=CCNCC3)c3ccc(Cl)cc32)cc1,3 nM,11.2 nM,–
COc1ccc2c(c1)c(C1=CCNCC1)cn2S(=O)(=O)c1ccc2ccccc2c1,19 nM,4.1 nM,–
O=S(=O)(c1ccccc1)n1cc(C2=CCN(Cc3ccccc3)CC2)c2ccccc21,246 nM,–,–
O=S(=O)(c1ccccc1)n1cc(C2CCNCC2)c2cc(F)ccc21,20 nM,–,–
O=S(=O)(c1ccc(Cl)cc1)n1cc(C2=CCNCC2)c2cc(F)ccc21,14 nM,–,–
O=S(=O)(c1cccc2ccccc12)n1cc(C2=CCNCC2)c2cc(F)ccc21,4 nM,9 nM,–
Nc1ccc(S(=O)(=O)n2cc(C3=CCNCC3)c3cc([N+](=O)[O-])ccc32)cc1,29 nM,–,–
Nc1ccc(S(=O)(=O)n2cc(C3=CCNCC3)c3cc4c(cc32)OCO4)cc1,1 nM,1.7 nM,–
CN1CC=C(c2cn(S(=O)(=O)c3ccc(F)cc3)c3ccccc23)CC1,5 nM,42.7 nM,–
CN1CC=C(c2cn(S(=O)(=O)c3cccc(Cl)c3)c3ccccc23)CC1,1 nM,9.4 nM,–
COc1ccc2c(c1)c(C1=CCNCC1)cn2S(=O)(=O)c1ccc(N)cc1,3 nM,0.4 nM,Ki [4]: 97 nM; inhibition [5]: 32%; inhibition [6]: 27%; Ki [7]: > 5000 nM

Structure (SMILES),Ki [1],IC50 [2],also measured
O=S(=O)(c1ccccc1)n1cc(C2CCNCC2)c2ccccc21,12 nM,19.5 nM,–
O=S(=O)(c1ccccc1)n1cc(C2=CCNCC2)c2ccccc21,2 nM,43 nM,–
COc1ccc(S(=O)(=O)n2cc(C3=CCNCC3)c3ccccc32)cc1,18 nM,–,–
O=S(=O)(c1ccc2ccccc2c1)n1cc(C2=CCNCC2)c2ccccc21,27 nM,–,–
Nc1ccc(S(=O)(=O)n2cc(C3=CCNCC3)c3ccccc32)cc1,2 nM,0.8 nM,Ki [4]: 1670 nM; inhibition [6]: 33%; Ki [7]: 1550 nM
Nc1ccc(S(=O)(=O)n2cc(C3CCNCC3)c3cc(F)ccc32)cc1,2 nM,1.3 nM,–
Nc1ccc(S(=O)(=O)n2cc(C3=CCNCC3)c3cc(OCc4ccccc4)ccc32)cc1,50 nM,–,–
Nc1ccc(S(=O)(=O)n2cc(C3=CCNCC3)c3cc(Br)ccc32)cc1,7 nM,33.7 nM,–
CN1CC=C(c2cn(S(=O)(=O)c3ccccc3)c3ccccc23)CC1,2 nM,13.8 nM,–
CN1CC=C(c2cn(S(=O)(=O)c3ccccc3F)c3ccccc23)CC1,10 nM,3.9 nM,–
CN1CC=C(c2cn(C(=O)c3ccccc3)c3ccccc23)CC1,99 nM,–,–
O=S(=O)(c1ccc(C(F)(F)F)cc1)n1cc(C2=CCNCC2)c2ccccc21,20 nM,–,–
O=S(=O)(c1nccc2sncc12)n1cc(C2=CCNCC2)c2ccccc21,5 nM,169 nM,–
CCCCS(=O)(=O)n1cc(C2=CCNCC2)c2ccccc21,77 nM,–,–
Nc1ccc(S(=O)(=O)n2cc(C3CCNCC3)c3ccc(Cl)cc32)cc1,3 nM,8.5 nM,inhibition [8]: 65%; inhibition [9]: 15%; Ki [4]: 115 nM; inhibition [10]: 16%; inhibition [5]: 10%; inhibition (D(3) dopamine receptor [11]): 7%; inhibition (D(2) dopamine receptor [12]): 10%; inhibition [13]: 7%; inhibition [6]: 30%; Ki [7]: > 2000 nM
O=S(=O)(c1ccc(F)cc1)n1cc(C2=CCNCC2)c2cc(F)ccc21,3 nM,31 nM,–
O=S(=O)(c1ccccc1Cl)n1cc(C2=CCNCC2)c2ccccc21,0.4 nM,8.8 nM,Ki [4]: > 2000 nM; Ki [14]: 599 nM; Ki (D(4) dopamine receptor): > 5000 nM; Ki [15]: 383 nM; inhibition [10]: 2%; inhibition [5]: 6%; Ki (D(2) dopamine receptor [16]): > 2000 nM; inhibition [6]: 12%; Ki (D(3) dopamine receptor [17]): 627 nM
O=S(=O)(c1ccccc1F)n1cc(C2=CCNCC2)c2ccccc21,1 nM,2.7 nM,inhibition [8]: 50%; inhibition [9]: 57%; Ki [4]: 875 nM; Ki (D(4) dopamine receptor): > 5000 nM; inhibition [10]: 53%; inhibition [5]: 9%; Ki (D(2) dopamine receptor [16]): > 2000 nM; inhibition [6]: 11%; Ki (D(3) dopamine receptor [17]): 741 nM
Nc1ccc(S(=O)(=O)n2cc(C3=CCNCC3)c3ccc([N+](=O)[O-])cc32)cc1,31 nM,–,–

# — ChEMBL document CHEMBL1141885, “N1-arylsulfonyl-3-(1,2,3,6-tetrahydropyridin-4-yl)-1H-indole derivatives are potent and selective 5-HT6 receptor antagonists” (Bioorg Med Chem Lett, 2005)
